EP4273147A1, “SUBSTITUTED SPIROLACTAMS, SALTS THEREOF AND THEIR USE AS HERBICIDALLY ACTIVE SUBSTANCES” (Bayer Aktiengesellschaft, priority 2022, dated 2023)

Legend:
DIGSA [1] = assay: Herbicidal pre-emergence action (Table A12); format: in vivo, Digitaria sanguinalis; conditions: application rate 320 g/ha; visual grading after ca. 3 weeks
Procedure, shortened: (§1)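 Weed seeds are sown into sandy loam in pots and covered with soil, with two species per pot, one monocot and one dicot.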

ZEAMX [2] = assay: Pre-emergence effects on crop plants (Table D1); format: in vivo, Zea mays; conditions: crop plant; application rate 320 g/ha; visual grading after ca. 3 weeks
LOLRI [3] = assay: Herbicidal pre-emergence action (Table A3); format: in vivo, Lolium rigidum; conditions: visual grading after ca. 3 weeks
Procedure, shortened: as §1

VERPE [4] = assay: Herbicidal post-emergence action, section E (Table E9); format: in vivo, Veronica persica; conditions: application rate 320 g/ha; assessed visually after ca. 3 weeks
Excerpt: (§2) 2 to 3 weeks after sowing, the test plants were sprayed in the single-leaf stage.

VIOTR [5] = assay: Herbicidal post-emergence action, section E (Table E10); format: in vivo, Viola tricolor; conditions: application rate 320 g/ha; assessed visually after ca. 3 weeks
Excerpt: as §2

VERPE [6] = assay: Herbicidal pre-emergence action, section C (Table C11); format: in vivo, Veronica persica; conditions: application rate 320 g/ha; visual grading after ca. 3 weeks
ZEAMX [7] = assay: Post-emergence effects on crop plants (Table F1); format: in vivo, Zea mays; conditions: application rate 320 g/ha, crop plant ZEAMX
Excerpt: as §2

GLXMA [8] = assay: Post-emergence effects on crop plants (Table F4); format: in vivo, Glycine max; conditions: application rate 320 g/ha, crop plant GLXMA
Excerpt: as §2

SETVI [9] = assay: Herbicidal pre-emergence action, section C (Table C10); format: in vivo, Setaria viridis; conditions: visual grading after ca. 3 weeks
ALOMY [10] = assay: Herbicidal pre-emergence action (Table A9); format: in vivo, Alopecurus myosuroides; conditions: application rate 1280 g/ha; visual grading after ca. 3 weeks
Procedure, shortened: as §1

ORYZA [11] = assay: Pre-emergence effects on crop plants (Table D3); conditions: crop plant, visual grading after ca. 3 weeks
LOLRI [12] = assay: Herbicidal post-emergence action (Table B5); format: in vivo, Lolium rigidum; conditions: application rate 1280 g/ha; rated visually after about 3 weeks
Experimental: (§3) Seeds of mono- and dicotyledonous weed plants were placed in plastic pots in sandy loam soil (doubly sown with in each case one species of mono- or dicotyledonous weed plants per pot), covered with soil and cultivated in a greenhouse under controlled growth conditions. 2 to 3 weeks after sowing, the test plants were treated at the one-leaf stage. […] After the test plants had been kept in the greenhouse under optimum growth conditions for about 3 weeks, the activity of the preparations was rated visually in comparison to untreated controls. For example, 100% activity = the plants have died, 0% activity = like control plants.

DIGSA [13] = assay: Herbicidal pre-emergence action, section C (Table C5); format: in vivo, Digitaria sanguinalis; conditions: visual grading after ca. 3 weeks
Excerpt: Seeds of mono- and dicotyledonous weed plants and crop plants were sown, in plastic or organic planting pots, in sandy loam and covered with soil. The compounds according to the invention, formulated in the form of wettable powders (WP) or as emulsifiable concentrates (EC), were applied to the surface of the covering soil as aqueous suspension or emulsion, with the addition of 0.5% of an additive, at an application rate of 600 1 of water/ha (converted). Following treatment, the pots were placed in a greenhouse and kept under optimum growth conditions for the test plants.

ORYZA [14] = assay: Post-emergence effects on crop plants (Table F3); format: in vivo, Oryza sativa; conditions: application rate 320 g/ha, crop plant ORYZA
Excerpt: as §2

POAAN [15] = assay: Herbicidal post-emergence action (Table B7); format: in vivo, Poa annua; conditions: application rate 1280 g/ha
Procedure, shortened: (§4)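 Plants grown from seed in a greenhouse are treated at the one-leaf stage, two to three weeks after sowing. They then stay under optimum growth conditions for about three weeks before herbicidal activity is scored visually on a 0–100% scale against untreated controls.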

ALOMY [16] = assay: Herbicidal pre-emergence action, section C (Table C2); format: in vivo, Alopecurus myosuroides; conditions: application rate 320 g/ha; visual grading after ca. 3 weeks
VIOTR [17] = assay: Herbicidal pre-emergence action, section C (Table C12); format: in vivo, Viola tricolor; conditions: application rate 80 g/ha; visual grading after ca. 3 weeks
ECHCG [18] = assay: Herbicidal post-emergence action (Table B3); format: in vivo, Echinochloa crus-galli; conditions: application rate 1280 g/ha; rated visually after about 3 weeks
Procedure, shortened: as §4

BRSNW [19] = assay: Pre-emergence effects on crop plants (Table D5); format: in vivo, Brassica napus; conditions: crop plant, visual grading after ca. 3 weeks
LOLRI [20] = assay: Herbicidal pre-emergence action, section C (Table C7); format: in vivo, Lolium rigidum; conditions: application rate 320 g/ha; visual grading after ca. 3 weeks
ECHCG [21] = assay: Herbicidal pre-emergence action, section C (Table C6); format: in vivo, Echinochloa crus-galli; conditions: visual grading after ca. 3 weeks
MATIN [22] = assay: Herbicidal pre-emergence action (Table A4); format: in vivo, Matricaria inodora; conditions: application rate 1280 g/ha; visual grading after ca. 3 weeks
Procedure, shortened: as §1

MATIN [23] = assay: Herbicidal post-emergence action (Table B6); format: in vivo, Matricaria inodora; conditions: application rate 1280 g/ha; rated visually after about 3 weeks
Procedure, shortened: as §4

POAAN [24] = assay: Herbicidal pre-emergence action (Table A7); format: in vivo, Poa annua; conditions: visual grading after ca. 3 weeks
Procedure, shortened: as §1

GLXMA [25] = assay: Pre-emergence effects on crop plants (Table D4); format: in vivo, Glycine max; conditions: crop plant, visual grading after ca. 3 weeks
STEME = assay: Herbicidal pre-emergence action (Table A6); format: in vivo, Stellaria media; conditions: application rate 320 g/ha; visual grading after ca. 3 weeks
Procedure, shortened: as §1

SETVI [26] = assay: Herbicidal pre-emergence action (Table A5); format: in vivo, Setaria viridis; conditions: visual grading after ca. 3 weeks
Procedure, shortened: as §1

TRZAS [27] = assay: Post-emergence effects on crop plants (Table F2); format: in vivo, Triticum aestivum; conditions: application rate 320 g/ha, crop plant TRZAS
Excerpt: as §2

ECHCG [28] = assay: Herbicidal pre-emergence action (Table A2); format: in vivo, Echinochloa crus-galli; conditions: visual grading after ca. 3 weeks
Procedure, shortened: as §1

VERPE [29] = assay: Herbicidal pre-emergence action (Table A11); format: in vivo, Veronica persica; conditions: application rate 1280 g/ha; visual grading after ca. 3 weeks
Procedure, shortened: as §1

SETVI [30] = assay: Herbicidal post-emergence action, section E (Table E8); format: in vivo, Setaria viridis; conditions: application rate 80 g/ha; assessed visually after ca. 3 weeks
Excerpt: as §2

VERPE [31] = assay: Herbicidal post-emergence action (Table B10); format: in vivo, Veronica persica
Procedure, shortened: as §4

ECHCG [32] = assay: Herbicidal post-emergence action, section E (Table E5); format: in vivo, Echinochloa crus-galli; conditions: application rate 320 g/ha; assessed visually after ca. 3 weeks
Excerpt: as §2

TRZAS [33] = assay: Pre-emergence effects on crop plants (Table D2); format: in vivo, Triticum aestivum; conditions: crop plant; application rate 320 g/ha; visual grading after ca. 3 weeks
BRSNW [34] = assay: Post-emergence effects on crop plants (Table F5); format: in vivo, Brassica napus; conditions: application rate 80 g/ha, crop plant BRSNW
Excerpt: as §2

ALOMY [35] = assay: Herbicidal post-emergence action (Table B2); format: in vivo, Alopecurus myosuroides; conditions: application rate 1280 g/ha; rated visually after about 3 weeks
Experimental: as §3

POLCO = assay: Herbicidal pre-emergence action, section C (Table C9); format: in vivo, Polygonum convolvulus; conditions: application rate 320 g/ha; visual grading after ca. 3 weeks

pre-emergence activity against ZEAMX (ZEAMX [2]) [%]	pre-emergence activity against ORYZA (ORYZA [11]; application rate 320 g/ha) [%]	pre-emergence activity against BRSNW (BRSNW [19]; application rate 320 g/ha) [%]	pre-emergence activity against TRZAS (TRZAS [33]) [%]	Structure (SMILES)	pre-emergence activity against DIGSA (DIGSA [1]) [%]	pre-emergence activity against LOLRI (LOLRI [3]; application rate 1280 g/ha) [%]	post-emergence activity against VIOTR (VIOTR [5]) [%]	post-emergence activity against ZEAMX (ZEAMX [7]) [%]	post-emergence activity against GLXMA (GLXMA [8]) [%]	pre-emergence activity against SETVI (SETVI [9]; application rate 320 g/ha) [%]	pre-emergence activity against ALOMY (ALOMY [10]) [%]	post-emergence activity against ORYZA (ORYZA [14]) [%]	post-emergence activity against ECHCG (ECHCG [18]) [%]	pre-emergence activity against POAAN (POAAN [24]; application rate 320 g/ha) [%]	pre-emergence activity against STEME (STEME) [%]	pre-emergence activity against SETVI (SETVI [26]; application rate 1280 g/ha) [%]	post-emergence activity against TRZAS (TRZAS [27]) [%]	pre-emergence activity against ECHCG (ECHCG [28]; application rate 320 g/ha) [%]	pre-emergence activity against VERPE (VERPE [29]) [%]	pre-emergence activity against ECHCG (ECHCG [21]; application rate 320 g/ha) [%]	also measured
0				O=C1N(Cc2ccccc2Cl)CCC12CCCN(Cc1c(F)cccc1F)C2=O (racemic) [I-045]	90	100	80	0	0	100	90	0	90	100	90	100	0				post-emergence activity against VERPE (VERPE [4]): 80%; pre-emergence activity against VERPE (VERPE [6]): 80%; pre-emergence activity against ORYZA (ORYZA [11]; application rate 80 g/ha): 0%; post-emergence activity against LOLRI (LOLRI [12]): 90%; pre-emergence activity against DIGSA (DIGSA [13]; application rate 80 g/ha): 80%; post-emergence activity against POAAN (POAAN [15]): 90%; pre-emergence activity against ALOMY (ALOMY [16]): 100%; pre-emergence activity against VIOTR (VIOTR [17]): 90%; pre-emergence activity against BRSNW (BRSNW [19]; application rate 80 g/ha): 0%; pre-emergence activity against LOLRI (LOLRI [20]): 90%; pre-emergence activity against ECHCG (ECHCG [21]; application rate 80 g/ha): 90%; pre-emergence activity against MATIN (MATIN [22]): 90%; post-emergence activity against MATIN (MATIN [23]): 90%; pre-emergence activity against GLXMA (GLXMA [25]; application rate 320 g/ha): 0%
20	0	20	20	O=C1N(Cc2cccc(F)c2Cl)CCCC12CCCN(Cc1cccc(F)c1Cl)C2=O (racemic) [I-047]		90	80	10	20		100	0				100	20	90	90	80	pre-emergence activity against SETVI (SETVI [9]; application rate 80 g/ha): 80%; post-emergence activity against SETVI (SETVI [30]): 80%; post-emergence activity against VERPE (VERPE [31]; application rate 1280 g/ha): 90%; post-emergence activity against ECHCG (ECHCG [32]): 80%; pre-emergence activity against POAAN (POAAN [24]; application rate 1280 g/ha): 100%; post-emergence activity against BRSNW (BRSNW [34]): 20%
				O=C1N(Cc2ccccc2Br)CCCC12CCCN(Cc1cccc(F)c1F)C2=O (racemic) [I-055]									90					100			pre-emergence activity against LOLRI (LOLRI [3]; application rate 320 g/ha): 100%; post-emergence activity against ALOMY (ALOMY [35]): 90%; post-emergence activity against VERPE (VERPE [31]; application rate 320 g/ha): 90%; pre-emergence activity against SETVI (SETVI [26]; application rate 320 g/ha): 90%
	20	0	0	O=C1N(Cc2cc(F)ccc2Cl)CCCC12CCCN(Cc1cc(F)ccc1Cl)C2=O (racemic) [I-069]	100		90	20	20	100		0		100	90		0		90	80	pre-emergence activity against ECHCG (ECHCG [28]; application rate 1280 g/ha): 90%; pre-emergence activity against DIGSA (DIGSA [13]; application rate 320 g/ha): 100%; post-emergence activity against ALOMY (ALOMY [35]): 100%; pre-emergence activity against GLXMA (GLXMA [25]; application rate 80 g/ha): 0%; post-emergence activity against BRSNW (BRSNW [34]): 0%; pre-emergence activity against SETVI (SETVI [26]; application rate 320 g/ha): 100%; pre-emergence activity against POLCO (POLCO): 80%
